# Experimental data published in US10758478B2, “Active agent loaded uniform, rigid, spherical, nanoporous calcium phosphate particles and methods of making and using the same” (Laboratory Skin Care, Inc., priority 2008, dated 2020).
# What was measured:
# [1] = Binding capacity to hydroxyapatite; type: physicochemical
# [2] = Solubility of salicylic acid (water, ethanol and PEG); type: physicochemical
structure (smiles),measurement,setting,value
"O=C(O)c1ccccc1O [Salicylic acid, 2-Hydroxybenzoic acid]",binding capacity to hydroxyapatite,[1],≤ 1 mg
same,solubility in ethanol and PEG (poly ethylene glycol),[2]; ethanol and PEG,up to 30%
same,solubility in water,[2]; water,water insoluble
